Tests used:
[1] = tested on: mice overexpressing CRH in the forebrain; conditions: cited from earlier work
CRH-COE^CNS mice = assay: REMS activity by EEG/EMG recording in CRH-COE^CNS mice and control littermates; conditions: for REMS activity: treatment days vs baseline
Experimental: (§1) Experiments were conducted with two different mouse lines of excessive central CRH secretion and their respective control littermates (CL). Mice of the CRH-COE^CNS line are characterised by CRH-overexpression within the whole CNS, whereas mice of the Cor26 CRH line display a CRH-overexpression specific to CRH-ergic neurons of the CNS. Three different CRHR1 antagonists were tested. […] In all cases, animals were left to recover from EEG/EMG-electrode implantation for two weeks, after which two days of baseline recording were initiated. Treatment with CRH-R1 antagonist or respective vehicle control commenced thereafter for five consecutive days. Antagonists were applied through the drinking water at a daily dose of 50 mg/kg body weight. EEG and EMG recordings were manually scored as wake, non-REMS (NREMS), and REMS in four second epochs by an experienced evaluator.

Cor26 CRH mice = assay: REMS levels by EEG/EMG recording in Cor26 CRH mice and control littermates; conditions: for REMS activity / REMS levels: CRH-overexpressing Cor26 CRH mice, 50 mg/kg/d via drinking water
Experimental: as §1

Row | SMILES | REM enhancement [1] | REMS activity in control littermates (CRH-COE^CNS mice; CL (control) mice, 50 mg/kg/d via drinking water) | treatment day of strongest suppression of REMS activity (CRH-COE^CNS mice; CRH-COE^CNS mice, 50 mg/kg/d) | REMS activity (CRH-COE^CNS mice; CRH-COE^CNS mice, 50 mg/kg/d via drinking water, 50 mg/kg/day) | REMS activity (CRH-COE^CNS mice; CRH-COE^CNS mice, 50 mg/kg/d via drinking water, listed as DMP696, 50 mg/kg/day) | REMS activity / REMS levels (Cor26 CRH mice; 50 mg/kg/day) | REMS activity / REMS levels (Cor26 CRH mice; listed as CP-316311, 50 mg/kg/day) | REMS levels, area under the curve (AUC) within the light period (Cor26 CRH mice; Cor26 CRH mice, baseline vs treatment day three, P=0.006)
1 | COCC(COC)Nc1nc(C)nc2c(-c3ccc(Cl)cc3Cl)c(C)nn12 [DMP-696] | could reverse the REM enhancement | only a mild suppression of REMS | treatment day three | significant decrease in REMS activity | suppressed | – | – | –
2 | CCC(CC)Oc1cc(C)nc(Oc2c(C)cc(C)cc2C)c1C [CP-316,311] | – | – | – | – | – | apparently seemed weak | suppressed | significant decrease
